Residues, ends and D or L forms follow the SMILES beside them. No end group written: not given here.
Key:
[1] = molecular target: T1, HspD (Hsp90 of Dictyostelium discoideum) (Dictyostelium discoideum, UniProt P54651); experiment: ATPase activity of HspD (pRSET A construct) in presence of peptide; type: biochemical; details: for inhibition of ATPase activity of HspD: pre-incubation 0.5 h room temperature, reaction 37 °C 1 h
T1 construct: We had earlier reported the activity studies of the full length protein; hexahistidine tag (N); pRSET A vector linker containing Gly-Arg-Asp-Leu-Tyr-Asp-Asp (N); made in house; host or cells: E. coli Rosetta
T1 sequence (P54651 whole entry): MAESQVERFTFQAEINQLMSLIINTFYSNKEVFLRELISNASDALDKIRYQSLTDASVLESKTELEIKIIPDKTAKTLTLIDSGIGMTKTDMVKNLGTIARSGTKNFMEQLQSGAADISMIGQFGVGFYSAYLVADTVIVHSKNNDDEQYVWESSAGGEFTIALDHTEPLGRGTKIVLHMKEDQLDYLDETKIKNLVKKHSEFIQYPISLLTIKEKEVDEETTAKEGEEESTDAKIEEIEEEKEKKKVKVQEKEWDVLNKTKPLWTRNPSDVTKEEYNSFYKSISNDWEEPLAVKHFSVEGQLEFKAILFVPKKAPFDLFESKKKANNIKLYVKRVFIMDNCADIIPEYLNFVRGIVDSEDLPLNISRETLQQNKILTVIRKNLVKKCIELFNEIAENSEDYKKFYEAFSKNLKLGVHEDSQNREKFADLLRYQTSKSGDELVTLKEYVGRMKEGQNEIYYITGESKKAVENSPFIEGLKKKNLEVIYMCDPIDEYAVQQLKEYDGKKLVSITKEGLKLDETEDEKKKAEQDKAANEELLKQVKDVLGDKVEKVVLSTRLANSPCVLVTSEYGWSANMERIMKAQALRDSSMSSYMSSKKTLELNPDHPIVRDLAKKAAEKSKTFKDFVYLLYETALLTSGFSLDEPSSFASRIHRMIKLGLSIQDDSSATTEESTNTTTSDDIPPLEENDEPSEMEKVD
Description: ATPase assay for HspD was carried out in presence of varying concentrations of the peptide and fixed ATP concentration of 500 μM. In presence of the peptide, there is a significant dose dependent inhibition of ATPase activity of HspD, starting from 5 mM concentration of the peptide (Fig. 5a).
(§1) The genes for HspD and HspD-NTD were cloned into pRSET A vector, using the following primers: 5′ […] 3′ as forward primer and 5′ […] 3′ as reverse primer for HspD as described previously, and 5′ […] 3′ as forward primer and 5′[…] 3′ as reverse primer for HspD-NTD, containing BamHI and XhoI sites (underlined) in forward and reverse primers, respectively. The proteins, HspD and HspD-NTD, were expressed as hexa histidine tagged fusion proteins in E. coli Rosetta strain. The cells were grown in Terrific broth and induced with 1 mM isopropyl β-D-1-thiogalactopyranoside at 15 °C for 15 hours. The proteins were purified by nickel-NTA affinity chromatography. The column was washed with imidazole gradient ranging from 5 mM to 30 mM in 50 mM Tris, pH 7.5, 500 mM NaCl, buffer. The proteins were finally eluted with 300 mM imidazole, followed by gel filtration with Sephacryl S-200 HR column and stored in 25 mM Tris and 200 mM NaCl, pH 7.5 buffer. The clone for human Hsp90 in pRSET A vector was expressed in E. coli Rosetta strain, and the protein was purified to homogeneity by nickel-NTA affinity chromatography, as described previously[31] and dialysed to exchange buffer containing 40 mM Tris-Cl, pH 7.5, 100 mM KCl and 5 mM MgCl2 for the ATPase assay. For the new construct the gene for HspD and HspD-NTD were cloned in pET-28a vector, which lacks the bound peptide sequence. The proteins were expressed and purified using the same protocol as described above.
In order to check the effect of the peptide binding on the ATPase activity of HspD and human Hsp90, purified proteins (2 μM) were incubated with varying peptide concentrations in 40 mM Tris–Cl buffer, pH 7.4, containing 100 mM KCl and 5 mM MgCl2, at room temperature for half hour. ATPase reaction was carried out in the presence of fixed ATP concentration of 500 μM at 37 °C for one hour. γ-^32P-ATP with a specific activity of 0.55 Ci/mmol was used as a tracer. ATP hydrolysis was monitored on a PEI- cellulose TLC plate. Fractional cleavage of ATP was calculated for each peptide concentration. ATPase activity of Hsp90 alone was considered 100%, and percent change in ATPase activity was plotted against peptide concentration.

[2] = molecular target: T2, HspD, new construct (pET-28a) (Dictyostelium discoideum, UniProt P54651); experiment: ATPase activity of new construct of HspD (pET-28a, lacking the linker peptide sequence) in presence of peptide; type: biochemical; details: 13.5 mM peptide (highest concentration), pET-28a construct, 500 μM ATP, mean ± SEM, n = 2
T2 construct: made in house; host or cells: E. coli Rosetta (same protocol)
T2 sequence (P54651 whole entry): as above
Description: Bio-Layer Interferometry experiments were carried out to check the binding of the peptide RELWDD. […] The peptide can be further modified to improve the binding efficacy, thereby reducing the inhibitory concentration required to inhibit Hsp90 function.
The genes for HspD and HspD-NTD were cloned into pRSET A vector, using the following primers: 5′ […] 3′ as forward primer and 5′ […] 3′ as reverse primer for HspD as described previously, and 5′ […] 3′ as forward primer and 5′[…] 3′ as reverse primer for HspD-NTD, containing BamHI and XhoI sites (underlined) in forward and reverse primers, respectively. The proteins, HspD and HspD-NTD, were expressed as hexa histidine tagged fusion proteins in E. coli Rosetta strain. The cells were grown in Terrific broth and induced with 1 mM isopropyl β-D-1-thiogalactopyranoside at 15 °C for 15 hours. The proteins were purified by nickel-NTA affinity chromatography. […]
(§2) In order to check the effect of the peptide binding on the ATPase activity of HspD and human Hsp90, purified proteins (2 μM) were incubated with varying peptide concentrations in 40 mM Tris–Cl buffer, pH 7.4, containing 100 mM KCl and 5 mM MgCl2, at room temperature for half hour. […] ATP hydrolysis was monitored on a PEI- cellulose TLC plate. Fractional cleavage of ATP was calculated for each peptide concentration. […]

[3] = molecular target: T3, HspD-NTD (pET-28a construct lacking the linker peptide) (Dictyostelium discoideum, UniProt P54651); experiment: biochemical; type: binding
T3 construct: the crystal structure of the N-terminal domain of HspD (HspD-NTD); made in house; host or cells: E. coli Rosetta (same protocol)
T3 sequence (P54651 1-225 limits assumed): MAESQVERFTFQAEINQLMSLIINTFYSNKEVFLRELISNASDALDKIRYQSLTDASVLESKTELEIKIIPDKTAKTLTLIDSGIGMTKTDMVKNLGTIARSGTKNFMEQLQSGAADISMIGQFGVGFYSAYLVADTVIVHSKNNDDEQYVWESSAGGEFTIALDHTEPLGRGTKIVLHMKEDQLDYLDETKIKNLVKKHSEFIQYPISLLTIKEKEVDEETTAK
Description: The binding of the peptide RELWDD to HspD-NTD construct lacking the linker peptide was measured by Bio-Layer Interferometry using an Octet RED96 instrument (ForteBio, Inc.). The peptide was immobilized onto Amine Reactive Second-Generation (AR2G) Biosensors. Binding studies were performed by dipping the biosensors in varying concentrations of HspD-NTD. An equal number of unliganded sensors was used as control, to account for non-specific binding. The traces were processed using ForteBio Data Analysis Software, ver. 8.0.3.5, exported and fit globally using Biaevaluation 3.0.1. A simple 1:1 Langmuir interaction model was used for fitting the data.
Figure S1. Binding of HspD-NTD to the peptide RELWDD using Bio-layer Interferometry.
concentrations of the protein.
(1 picture or pasted object on this page, not shown here)

[4] = molecular target: T4, human Hsp90 (Homo sapiens, UniProt P07900); experiment: ATPase activity of human Hsp90 in presence of peptide; type: biochemical; parameters: made in house; host or cells: E. coli Rosetta; details: human Hsp90 2 μM, 500 μM ATP
Description: Lys47 of HspD-NTD is observed to be in a different rotamer conformation as compared to Lys58 of the human isoform, due to the former’s interaction with the residues of the peptide. Lys58 of the human Hsp90 is likely to adopt a similar conformation in the presence of a similar peptide. The water molecules interacting with Asn40 and Asp82 in the case of HspD-NTD are also found to be conserved in human Hsp90-NTD structure. […] In order to validate this, ATPase assay was performed for human Hsp90 in the presence of the modified peptide. […] This observation that the peptide binds to the NTD and inhibits its ATPase activity paves way for the development of new class of peptide-based inhibitors for Hsp90.
as §1, with “The clone for human Hsp90 in pRSET A vector was expressed in E. coli Rosetta strain, and the protein was purified to homogeneity by nickel-NTA affinity chromatography, as described previously[31] and dialysed to exchange buffer containing 40 mM Tris-Cl, pH 7.5, 100 mM KCl and 5 mM MgCl2 for the ATPase assay. For the new construct the gene for HspD and HspD-NTD were cloned in pET-28a vector, which lacks the bound peptide sequence. The proteins were expressed and purified using the same protocol as described above.” left out
as §2

[5] = molecular target: Hsp90 of Dictyostelium discoideum (HspD), full length, pRSET A construct (Dictyostelium discoideum) (UniProt P54651)
Sequence of Hsp90 of Dictyostelium discoideum (HspD), full length, pRSET A construct (Dictyostelium discoideum) (P54651 whole entry): as the sequence (P54651 whole entry) above

[6] = molecular target: T4, human Hsp90
[7] = molecular target: new construct of HspD, full length, in pET-28a (Dictyostelium discoideum) (UniProt P54651)
Sequence of new construct of HspD, full length, in pET-28a (Dictyostelium discoideum) (P54651 whole entry, the tested form may be a part): as the sequence (P54651 whole entry) above

[8] = molecular target: T5, N-terminal domain of Hsp90 of Dictyostelium discoideum (HspD-NTD), pRSET A construct (Dictyostelium discoideum, UniProt P54651 1-225); experiment: crystal structure; hanging drop, 15 mg/mL HspD-NTD, 0.1 M HEPES pH 7.0-8.0, 10-30% PEG3350; no peptide added, the peptide comes from the vector stretch of the fusion protein; 1.2 Å; details: both partners purified
T5 construct: 'a total of 225 residues', the first 214 seen in the density; forward primer starts at the ATG of the gene, reverse primer encodes ...ETTAK-stop; Expressed from pRSET A with a vector stretch (holding GRDLYDD) between the N-terminal hexahistidine tag and the NTD; source: E. coli Rosetta, purified (nickel-NTA, gel filtration on Sephacryl S-200 HR)
T5 sequence (P54651 1-225): as the sequence (P54651 1-225 limits assumed) above

CC(C)C[C@H](NC(=O)[C@H](CCC(=O)O)NC(=O)[C@@H](N)CCCNC(=N)N)C(=O)N[C@@H](Cc1c[nH]c2ccccc12)C(=O)N[C@@H](CC(=O)O)C(=O)N[C@@H](CC(=O)O)C(=O)O [RELWDD, Arg-Glu-Leu-Trp-Asp-Asp] (H-RELWDD-OH)
inhibition of ATPase activity of HspD ([1]; 10 mM peptide, HspD 2 μM, 500 μM ATP): 30%
ATPase activity of HspD observed (Hsp90 alone = 100%) ([1]; 13.5 mM peptide (highest concentration), HspD 2 μM, 500 μM ATP, mean ± SEM, n = 5, SEM): 38.50 ± 10.11%
inhibition of ATPase activity of HspD ([1]; 13.5 mM peptide, HspD 2 μM, 500 μM ATP): 60%
ATPase activity of new construct of HspD observed (Hsp90 alone = 100%) [2]: 50.60 ± 4.68%
KD of binding to HspD-NTD, in words [3]: lower micromolar range
kon ([3]; Bio-Layer Interferometry, peptide immobilized on AR2G biosensors, 1:1 Langmuir model, global fit, mean ± standard deviation, SD): 90.6 ± 46.6 M⁻¹ s⁻¹
Kd ([3]; SD): 28.2 ± 14.6 µM
inhibition of ATPase activity of human Hsp90 ([4]; 5 mM peptide): 30%
inhibition of ATPase activity of human Hsp90 ([4]; 10 mM peptide): 55%
ATPase activity of human Hsp90 remaining (Hsp90 alone = 100%) ([4]; 10 mM peptide, mean ± SEM, n = 2, SEM): 46.91 ± 12.05%

GRDLYDD [GRDLYDD, purchased synthetic peptide]
change in ATPase activity of HspD in the presence of the peptide ([1]; 100 μM-13.5 mM peptide, HspD 2 μM, 500 μM ATP, 37 °C, 1 h, γ-32P-ATP, TLC): no significant change
ATPase inhibition of HspD, in words ([1]; summary statement): no inhibition whatsoever

RELWDD (not fully specified) [modified hexapeptide Arg-Glu-Leu-Trp-Asp-Asp]
percent inhibition of ATPase activity of HspD (2 μM, 500 μM ATP) with rising peptide RELWDD, inhibition from 5 mM, 30% at 10 mM, highest at 13.5 mM [5]: 60%
percent inhibition of ATPase activity of human Hsp90 (2 μM) with rising peptide RELWDD, 30% at 5 mM, highest at 10 mM [6]: 55%
percent ATPase activity left of the new construct of HspD (pET-28a) with rising peptide RELWDD, at the highest concentration of 13.5 mM [7]: 50.6%

B1: heptapeptide Gly-Arg-Asp-Leu-Tyr-Asp-Asp (peptide)
peptide: GRDLYDD
notes: numbered from -14 to -8 starting from Gly; No peptide was added for the crystal; also called GRDLYDD; the peptide; source: for the ATPase assay: synthetic peptide, bought: Custom peptide synthesis, USV Limited, Mumbai
binding result [8]: binds

From paper PMC4657054, “First Structural View of a Peptide Interacting with the Nucleotide Binding Domain of Heat Shock Protein 90” (Scientific Reports, 2015)
